Data taken from US12187688B2, “Crystal form of tetramethylpyrazine nitrone, preparation method and use thereof” (GUANGZHOU MAGPIE PHARMACEUTICALS CO., LTD., priority 2019, dated 2025).
Where “and” joins values, the source holds several entries; their conditions need not be identical. Equal values may be shown once. Read-outs that look alike come from different tables or passages of the source.

Key:
[1] = Polymorph transformation test of suspension; assay type: physicochemical; settings: petroleum ether, room temperature, 7 days
Experimental: (1) The crystal form A of TBN was beaten in petroleum ether (1.0 mL) at room temperature for 7 days, and then the suspension was centrifuged, and the solid sample was collected for characterization by XRPD.

[2] = pharmacokinetic study in the cerebrospinal fluid of cynomolgus monkey; assay type: in vivo
Experimental: The pharmacodynamic study in cynomolgus monkey animal model of cerebral stroke and also the pharmacokinetic study of the crystal form A of TBN in the cerebrospinal fluid of cynomolgus monkey were carried out. 10 min, 30 min, 60 min, and 120 min after the second administration (30 mg/kg, 6 hrs after the first intravenous administration of 30 mg/kg), 0.5 ml of cerebrospinal fluid was collected for pharmacokinetic test.

[3] = Test of influence of acceleration; assay type: physicochemical
Solubility in solvents = assay type: physicochemical
Tableting test = assay type: physicochemical; settings: 2 tons for 2 min
Experimental: (3) The crystal form A and the TBN dihydrate were tableted under a pressure of 2 tons for 2 min. The tablets thus obtained were analyzed by XRPD.

[4] = Test of stability against mechanical treatment (grinding); assay type: physicochemical; settings: ground for 10 min
Experimental: (2) The crystal form A of TBN and the TBN dihydrate were ground for 10 min receptively, and the treated samples were analyzed by XRPD.

[5] = Test of stability against cold/heat treatment; assay type: physicochemical
Experimental: (4) The crystal form A was cooled to −55° C., and then heated to 25° C.
(5) The crystal form A was heated to 110° C. (before the decomposition point), and then cooled to 25° C. to obtain a yellow oily liquid.
(6) The TBN dihydrate was heated to 110° C. (before the decomposition point), and then cooled to 25° C. to obtain a yellow oily liquid.

[6] = distribution in tissues after intravenous administration to SD rats; assay type: in vivo; settings: 30 mg/kg i.v.
Experimental: SD rats were given the crystal form A of TBN at a dose of 30 mg/kg by intravenous injection and the distribution of the crystal form A of TBN in various tissues was investigated.

[7] = in vitro cell experiments (effective protection concentration); assay type: cell-based
[8] = pharmacokinetic study in the cerebrospinal fluid of cynomolgus monkey; assay type: in vivo; settings: plasma, iv, 30 mg/kg, 10 min after the second administration, 30 mg/kg i.v., read-out: concentration of the drug in plasma

Cc1nc(C)c(/C=[N+](\[O-])C(C)(C)C)nc1C [crystal form A of TBN, (Z)-2-methyl-N-((3,5,6-trimethylpyrazin-2-yl)methylene)propan-2-amine oxide]
crystal form by XRPD after suspension beating [1]: still crystal form A
blood-brain barrier penetration ([2]; 30 mg/kg i.v.): penetrate through the blood-brain barrier
crystal form by XRPD after acceleration ([3]; 7 days at 40° C. and RH=75%): shows crystal form A
stability in heat treatment, mechanical treatment and acceleration ([3]; acceleration (50° C., 75% RH)): stable
solubility (Solubility in solvents; most solvents (acetonitrile, methanol, ethanol, acetone, ethyl acetate)): readily soluble
solubility (Solubility in solvents; water): very soluble
polymorph transformation after tableting (XRPD) (Tableting test): do not undergo polymorph transformation
crystal form (XRPD) after grinding [4]: no change
polymorph transformation after cooling treatment ([5]; cooled to −55° C., then heated to 25° C.): does not undergo polymorph transformation
crystal form by XRPD after thermal treatment ([5]; heated to 110° C., cooled to 25° C., solid precipitated after stirring): characterized by XRPD as crystal form A

Cc1nc(C)c(/C=[N+](\[O-])C(C)(C)C)nc1C [TBN, (Z)-2-methyl-N-((3,5,6-trimethylpyrazin-2-yl)methylene)propan-2-amine oxide]
accumulation in the detected tissues [6]: does not tend to accumulate
time to clearance from the tissues and plasma [6]: ≤ 24 h
concentration in the brain tissue relative to plasma concentration ([6]; 0.25 hrs after administration): 0.6-0.7 time the plasma concentration
concentration in the brain tissue relative to plasma concentration ([6]; after 4 hrs): 0.8-1.1 times the plasma concentration
clearance from brain tissue ([6]; at 24 hrs): completely cleared
tissue distribution ([6]; female and male): rapid and widespread distribution
Drug concentration in cerebrospinal fluid ([2]; 10 min after second intravenous 30 mg/kg dose, individual animals, 30 mg/kg): 33700 ng/mL and 34300 ng/mL
Drug concentration in cerebrospinal fluid ([2]; 30 min after second intravenous 30 mg/kg dose, individual animals, 30 mg/kg): 32200 ng/mL and 25100 ng/mL
Drug concentration in cerebrospinal fluid ([2]; 60 min after second intravenous 30 mg/kg dose, individual animals, 30 mg/kg): 25300 ng/mL and 20000 ng/mL
Drug concentration in cerebrospinal fluid ([2]; 120 min after second intravenous 30 mg/kg dose, individual animals, 30 mg/kg): 16500 ng/mL and 14300 ng/mL and 7800 ng/mL
concentration at 10 min ([2]; cerebrospinal fluid, iv, 30 mg/kg, 10 min after second intravenous 30 mg/kg dose, individual animals, read-out: Drug concentration in cerebrospinal fluid): 48800 ng/mL
concentration at 10 min ([2]; cerebrospinal fluid, iv, 30 mg/kg, 10 min after the second administration, 30 mg/kg i.v., read-out: concentration of TBN in the cerebrospinal fluid): 176 µM
concentration at 30 min ([2]; cerebrospinal fluid, iv, 30 mg/kg, 30 min after second intravenous 30 mg/kg dose, individual animals, read-out: Drug concentration in cerebrospinal fluid): 41100 ng/mL
concentration at 60 min ([2]; cerebrospinal fluid, iv, 30 mg/kg, 60 min after second intravenous 30 mg/kg dose, individual animals, read-out: Drug concentration in cerebrospinal fluid): 27500 ng/mL
effective protection concentration [7]: 30 µM
concentration at 10 min [8]: 195 µM
